This passage reports AC50 results from patent publication US20250171438A1 (Agios Pharmaceuticals, Inc., priority 2022, published 2025).

The assay addresses T1, human PAH with the R408W mutation (Homo sapiens, UniProt P00439, R408W).
T1 construct: expressed in transfected cells
T1 sequence (P00439 1-452 R408W): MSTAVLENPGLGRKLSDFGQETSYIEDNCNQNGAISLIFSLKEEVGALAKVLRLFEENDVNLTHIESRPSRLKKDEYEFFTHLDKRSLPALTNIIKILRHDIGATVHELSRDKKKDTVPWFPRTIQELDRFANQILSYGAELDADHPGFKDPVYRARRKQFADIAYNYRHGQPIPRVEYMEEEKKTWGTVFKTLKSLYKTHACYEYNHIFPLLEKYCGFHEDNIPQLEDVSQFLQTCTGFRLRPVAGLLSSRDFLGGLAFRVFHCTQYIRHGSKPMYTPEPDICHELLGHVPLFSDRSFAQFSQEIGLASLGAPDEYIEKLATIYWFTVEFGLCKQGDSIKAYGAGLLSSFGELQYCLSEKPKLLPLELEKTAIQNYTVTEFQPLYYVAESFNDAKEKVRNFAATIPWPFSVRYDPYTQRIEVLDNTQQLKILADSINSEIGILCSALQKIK
As to the kind of experiment: Cell Based Phenylalanine Flux Assay. Conditions: A375 cells expressing human R408W PAH; 24 hrs compound incubation; 13C-Tyrosine by LC-MS; average where tested multiple times; read-out: AC50.

One may read the AC50 as the midpoint of the concentration-response curve, whichever way the signal moves. On to `CC(F)c1nc(C(F)F)c(C(=O)N2CCc3[nH]cnc3[C@@H]2c2nc3c(F)cccc3s2)o1` (stereo partly drawn) [Example 2076, (4-(difluoromethyl)-2-(1-fluoroethyl)oxazol-5-yl)((R)-4-(4-fluorobenzo[d]thiazol-2-yl)-6,7-dihydro-1H-imidazo[4,5-c]pyridin-5(4H)-yl)methanone], for which the AC50 is 0.5 to 1 µM.

On to `CCn1cnnc1C(=O)N1CCc2[nH]cnc2[C@@H]1c1nc2ccccc2s1` [Example 2077, (R)-(4-(benzo[d]thiazol-2-yl)-6,7-dihydro-1H-imidazo[4,5-c]pyridin-5(4H)-yl)(4-ethyl-4H-1,2,4-triazol-3-yl)methanone], for which the AC50 was above 5 µM.

Consider `CCn1cnnc1C(=O)N1CCc2[nH]cnc2[C@H]1c1nc2ccccc2s1` [Example 2078], for which the half-maximal activity concentration (AC50) is below 0.5 µM.

For the compound `O=C(c1nncn1C1CC1)N1CCc2[nH]cnc2[C@@H]1c1nc2c(F)cccc2s1` [Example 2083, (R)-(4-cyclopropyl-4H-1,2,4-triazol-3-yl)(4-(4-fluorobenzo[d]thiazol-2-yl)-6,7-dihydro-1H-imidazo[4,5-c]pyridin-5(4H)-yl)methanone], the AC50 is 1 to 5 µM.

Take `O=C(c1nncn1C1CC1)N1CCc2[nH]cnc2[C@H]1c1nc2c(F)cccc2s1` [Example 2084]: the AC50 lay in the range of 0.5 to 1 µM.

In the case of `CC(C)(O)c1nc(C(F)F)c(C(=O)N2CCc3[nH]cnc3[C@H]2c2nc3c(F)cccc3s2)s1` [Example 2085, (S)-(4-(difluoromethyl)-2-(2-hydroxypropan-2-yl)thiazol-5-yl)(4-(4-fluorobenzo[d]thiazol-2-yl)-6,7-dihydro-1H-imidazo[4,5-c]pyridin-5(4H)-yl)methanone], the AC50 was below 0.5 µM.

In the case of `CC(C)(O)c1nc(C(F)F)c(C(=O)N2CCc3[nH]cnc3[C@@H]2c2nc3c(F)cccc3s2)s1` [Example 2086, (R)-(4-(difluoromethyl)-2-(2-hydroxypropan-2-yl)thiazol-5-yl)(4-(4-fluorobenzo[d]thiazol-2-yl)-6,7-dihydro-1H-imidazo[4,5-c]pyridin-5(4H)-yl)methanone], the AC50 lay in the range of 0.5 to 1 µM.

Consider `CC(C)(O)c1nc(Cl)c(C(=O)N2CCc3[nH]cnc3[C@H]2c2nc3c(F)cccc3s2)s1` [Example 2087, (S)-(4-chloro-2-(2-hydroxypropan-2-yl)thiazol-5-yl)(4-(4-fluorobenzo[d]thiazol-2-yl)-6,7-dihydro-1H-imidazo[4,5-c]pyridin-5(4H)-yl)methanone], for which the AC50 lay in the range of 1 to 5 µM.

Consider `CC(C)(O)c1nc(Cl)c(C(=O)N2CCc3[nH]cnc3[C@@H]2c2nc3c(F)cccc3s2)s1` [Example 2088, (R)-(4-chloro-2-(2-hydroxypropan-2-yl)thiazol-5-yl)(4-(4-fluorobenzo[d]thiazol-2-yl)-6,7-dihydro-1H-imidazo[4,5-c]pyridin-5(4H)-yl)methanone], for which the AC50 was 1 to 5 µM.

Consider `CC(C)(O)c1nc(Br)c(C(=O)N2CCc3[nH]cnc3[C@H]2c2nc3ccccc3s2)o1` [Example 2089], for which the concentration at half-maximal activity (AC50) is below 0.5 µM.

Consider `CC(C)(O)c1nc(Br)c(C(=O)N2CCc3[nH]cnc3[C@@H]2c2nc3ccccc3s2)o1` [Example 2090, (R)-(4-(benzo[d]thiazol-2-yl)-6,7-dihydro-1H-imidazo[4,5-c]pyridin-5(4H)-yl)(4-bromo-2-(2-hydroxypropan-2-yl)oxazol-5-yl)methanone], for which the AC50 lay within 1 to 5 µM.

On to `C[C@@H](O)c1nc(C(F)F)c(C(=O)N2CCc3[nH]cnc3[C@H]2c2nc3ccccc3s2)o1` [Example 2091], for which the AC50 was below 0.5 µM.

For `C[C@@H](O)c1nc(C(F)F)c(C(=O)N2CCc3[nH]cnc3[C@@H]2c2nc3ccccc3s2)o1` [Example 2092, ((R)-4-(benzo[d]thiazol-2-yl)-6,7-dihydro-1H-imidazo[4,5-c]pyridin-5(4H)-yl)(4-(difluoromethyl)-2-((R)-1-hydroxyethyl)oxazol-5-yl)methanone], the AC50 was in the range of 0.5 to 1 µM.

Regarding `CC(C)(O)c1nc(Br)c(C(=O)N2CCc3[nH]cnc3[C@H]2c2nc3c(F)cccc3s2)s1` [Example 2093, (S)-(4-bromo-2-(2-hydroxypropan-2-yl)thiazol-5-yl)(4-(4-fluorobenzo[d]thiazol-2-yl)-6,7-dihydro-1H-imidazo[4,5-c]pyridin-5(4H)-yl)methanone], the AC50 is below 0.5 µM.

As for `CC(C)(O)c1nc(Br)c(C(=O)N2CCc3[nH]cnc3[C@@H]2c2nc3c(F)cccc3s2)s1` [Example 2094, (R)-(4-bromo-2-(2-hydroxypropan-2-yl)thiazol-5-yl)(4-(4-fluorobenzo[d]thiazol-2-yl)-6,7-dihydro-1H-imidazo[4,5-c]pyridin-5(4H)-yl)methanone], the half-maximal activity concentration (AC50) was in the range of 1 to 5 µM.

Regarding `C[C@H](O)c1nc(C(F)F)c(C(=O)N2CCc3[nH]cnc3[C@H]2c2nc3ccccc3s2)o1` [Example 2095], the AC50 is below 0.5 µM.

Consider `C[C@H](O)c1nc(C(F)F)c(C(=O)N2CCc3[nH]cnc3[C@@H]2c2nc3ccccc3s2)o1` [Example 2096, ((R)-4-(benzo[d]thiazol-2-yl)-6,7-dihydro-1H-imidazo[4,5-c]pyridin-5(4H)-yl)(4-(difluoromethyl)-2-((S)-1-hydroxyethyl)oxazol-5-yl)methanone], for which the AC50 lay within 1 to 5 µM.

Regarding `O=C(c1ccnn1C(F)(F)F)N1CCc2[nH]cnc2[C@H]1c1nc2ccccc2s1` [Example 2097], the concentration at half-maximal activity (AC50) is below 0.5 µM.

Turning to `O=C(c1ccnn1C(F)(F)F)N1CCc2[nH]cnc2[C@@H]1c1nc2ccccc2s1` [Example 2098, (R)-(4-(benzo[d]thiazol-2-yl)-6,7-dihydro-1H-imidazo[4,5-c]pyridin-5(4H)-yl)(1-(trifluoromethyl)-1H-pyrazol-5-yl)methanone], the AC50 is 0.5 to 1 µM.

Take `O=C(c1ccnn1C(F)(F)F)N1CCc2[nH]cnc2[C@H]1c1nc2c(F)cccc2s1` [Example 2099, (S)-(4-(4-fluorobenzo[d]thiazol-2-yl)-6,7-dihydro-1H-imidazo[4,5-c]pyridin-5(4H)-yl)(1-(trifluoromethyl)-1H-pyrazol-5-yl)methanone]: the AC50 was below 0.5 µM.

As to `O=C(c1ccnn1C(F)(F)F)N1CCc2[nH]cnc2[C@@H]1c1nc2c(F)cccc2s1` [Example 2100, (R)-(4-(4-fluorobenzo[d]thiazol-2-yl)-6,7-dihydro-1H-imidazo[4,5-c]pyridin-5(4H)-yl)(1-(trifluoromethyl)-1H-pyrazol-5-yl)methanone], the AC50 fell in the range of 1 to 5 µM.

Take `Cn1ncnc1C(=O)N1CCc2[nH]cnc2[C@H]1c1nc2c(C(F)(F)F)cccc2s1` [Example 2101, (S)-(1-methyl-1H-1,2,4-triazol-5-yl)(4-(4-(trifluoromethyl)benzo[d]thiazol-2-yl)-6,7-dihydro-1H-imidazo[4,5-c]pyridin-5(4H)-yl)methanone]: the concentration at half-maximal activity (AC50) was 0.5 to 1 µM.

Take `Cn1ncnc1C(=O)N1CCc2[nH]cnc2[C@@H]1c1nc2c(C(F)(F)F)cccc2s1` [Example 2102, (R)-(1-methyl-1H-1,2,4-triazol-5-yl)(4-(4-(trifluoromethyl)benzo[d]thiazol-2-yl)-6,7-dihydro-1H-imidazo[4,5-c]pyridin-5(4H)-yl)methanone]: the AC50 is 1 to 5 µM.

For the compound `CC(C)(O)c1nc(C(F)F)c(C(=O)N2CCc3[nH]cnc3[C@H]2c2nc3c(C(F)(F)F)cccc3s2)o1` [Example 2103, (S)-(4-(difluoromethyl)-2-(2-hydroxypropan-2-yl)oxazol-5-yl)(4-(4-(trifluoromethyl)benzo[d]thiazol-2-yl)-6,7-dihydro-1H-imidazo[4,5-c]pyridin-5(4H)-yl)methanone], the AC50 was below 0.5 µM.

With `CC(C)(O)c1nc(C(F)F)c(C(=O)N2CCc3[nH]cnc3[C@@H]2c2nc3c(C(F)(F)F)cccc3s2)o1` [Example 2104, (R)-(4-(difluoromethyl)-2-(2-hydroxypropan-2-yl)oxazol-5-yl)(4-(4-(trifluoromethyl)benzo[d]thiazol-2-yl)-6,7-dihydro-1H-imidazo[4,5-c]pyridin-5(4H)-yl)methanone], the AC50 was in the range of 0.5 to 1 µM.

`CC(C)(O)c1nc(C(F)F)c(C(=O)N2CCc3[nH]cnc3[C@H]2c2nc3ccccc3s2)s1` [Example 2105]: the AC50 is below 0.5 µM.

Turning to `CC(C)(O)c1nc(C(F)F)c(C(=O)N2CCc3[nH]cnc3[C@@H]2c2nc3ccccc3s2)s1` [Example 2106, (R)-(4-(benzo[d]thiazol-2-yl)-6,7-dihydro-1H-imidazo[4,5-c]pyridin-5(4H)-yl)(4-(difluoromethyl)-2-(2-hydroxypropan-2-yl)thiazol-5-yl)methanone], the AC50 was below 0.5 µM.

Take `CC(C)(O)c1nc(Br)c(C(=O)N2CCc3[nH]cnc3[C@H]2c2nc3ccccc3s2)s1` [Example 2107]: the AC50 is below 0.5 µM.

For the compound `CC(C)(O)c1nc(Br)c(C(=O)N2CCc3[nH]cnc3[C@@H]2c2nc3ccccc3s2)s1` [Example 2108, (R)-(4-(benzo[d]thiazol-2-yl)-6,7-dihydro-1H-imidazo[4,5-c]pyridin-5(4H)-yl)(4-bromo-2-(2-hydroxypropan-2-yl)thiazol-5-yl)methanone], the half-maximal activity concentration (AC50) was 1 to 5 µM.

As to `C[C@@H](O)c1nc(C(F)F)c(C(=O)N2CCc3[nH]cnc3[C@H]2c2nc3c(C(F)(F)F)cccc3s2)o1` [Example 2109, (4-(difluoromethyl)-2-((R)-1-hydroxyethyl)oxazol-5-yl) ((S)-4-(4-(trifluoromethyl)benzo[d]thiazol-2-yl)-6,7-dihydro-1H-imidazo[4,5-c]pyridin-5(4H)-yl)methanone], the AC50 was below 0.5 µM.
